Data: patent US20050113292A1 (priority 2003, published 2005)

Legend:
[1] = test system: HIV-1 mediated cell-cell fusion (R8 virus); settings: mediated cell-cell fusion (R8 virus)
M-tropic (BAL) HIV-1 = settings: M-tropic (BAL)
T-tropic (R8) HIV-1 = settings: T-tropic (R8)

## CC[C@H](C)[C@H](NC(=O)[C@H](CC(C)C)NC(=O)[C@H](CO)NC(=O)[C@H](Cc1c[nH]cn1)NC(=O)[C@@H](NC(=O)[C@H](CC(C)C)NC(=O)[C@H](CO)NC(=O)[C@@H](NC(=O)[C@H](Cc1ccc(O)cc1)NC(=O)[C@H](CC(N)=O)NC(=O)[C@H](CC(N)=O)NC(=O)[C@@H](NC(=O)[C@@H]1CSC(C(=O)NCCCC[C@H](NC(=O)CCNC(=O)C2N[C@H](C(=O)N[C@H](C(=O)N[C@@H](CC(N)=O)C(=O)N[C@@H](CC(N)=O)C(=O)N[C@@H](Cc3ccc(O)cc3)C(=O)N[C@H](C(=O)N[C@@H](CO)C(=O)N[C@@H](CC(C)C)C(=O)N[C@H](C(=O)N[C@@H](Cc3c[nH]cn3)C(=O)N[C@@H](CO)C(=O)N[C@@H](CC(C)C)C(=O)N[C@H](C(=O)N[C@@H](CCC(=O)O)C(=O)N[C@@H](CCC(=O)O)C(=O)N[C@@H](CO)C(=O)N[C@@H](CCC(N)=O)C(=O)N[C@@H](CC(N)=O)C(=O)N[C@@H](CCC(N)=O)C(=O)N[C@@H](CCC(N)=O)C(=O)N[C@@H](CCC(=O)O)C(=O)N[C@@H](CCCCN)C(=O)N[C@@H](CC(N)=O)C(=O)N[C@@H](CCC(=O)O)C(=O)N[C@@H](CCC(N)=O)C(=O)N[C@@H](CCC(=O)O)C(=O)N[C@@H](CC(C)C)C(=O)N[C@@H](CC(C)C)C(=O)O)[C@@H](C)CC)[C@@H](C)CC)[C@@H](C)O)[C@@H](C)CC)CS2)C(=O)N[C@@H](CCCCNC(=O)CNC(=O)C2N[C@H](C(=O)N[C@H](C(=O)N[C@@H](CC(N)=O)C(=O)N[C@@H](CC(N)=O)C(=O)N[C@@H](Cc3ccc(O)cc3)C(=O)N[C@H](C(=O)N[C@@H](CO)C(=O)N[C@@H](CC(C)C)C(=O)N[C@H](C(=O)N[C@@H](Cc3c[nH]cn3)C(=O)N[C@@H](CO)C(=O)N[C@@H](CC(C)C)C(=O)N[C@H](C(=O)N[C@@H](CCC(=O)O)C(=O)N[C@@H](CCC(=O)O)C(=O)N[C@@H](CO)C(=O)N[C@@H](CCC(N)=O)C(=O)N[C@@H](CC(N)=O)C(=O)N[C@@H](CCC(N)=O)C(=O)N[C@@H](CCC(N)=O)C(=O)N[C@@H](CCC(=O)O)C(=O)N[C@@H](CCCCN)C(=O)N[C@@H](CC(N)=O)C(=O)N[C@@H](CCC(=O)O)C(=O)N[C@@H](CCC(N)=O)C(=O)N[C@@H](CCC(=O)O)C(=O)N[C@@H](CC(C)C)C(=O)N[C@@H](CC(C)C)C(=O)O)[C@@H](C)CC)[C@@H](C)CC)[C@@H](C)O)[C@@H](C)CC)CS2)C(=O)N[C@@H](CO)C(=O)N[C@@H](CO)C(=O)N[C@@H](C)C(N)=O)N1)[C@@H](C)CC)[C@@H](C)O)[C@@H](C)CC)C(=O)N[C@@H](CCC(=O)O)C(=O)N[C@@H](CCC(=O)O)C(=O)N[C@@H](CO)C(=O)N[C@@H](CCC(N)=O)C(=O)N[C@@H](CC(N)=O)C(=O)N[C@@H](CCC(N)=O)C(=O)N[C@@H](CCC(N)=O)C(=O)N[C@@H](CCC(=O)O)C(=O)N[C@@H](CCCCN)C(=O)N[C@@H](CC(N)=O)C(=O)N[C@@H](CCC(=O)O)C(=O)N[C@@H](CCC(N)=O)C(=O)N[C@@H](CCC(=O)O)C(=O)N[C@@H](CC(C)C)C(=O)N[C@@H](CC(C)C)C(=O)O (stereo partly drawn) [Compound 3α-C27]
[1]
  IC50: 0.0028 µM
M-tropic (BAL) HIV-1
  IC50: 0.0005 µM
T-tropic (R8) HIV-1
  IC50: 0.38 µM

## CC[C@H](C)[C@H](NC(=O)[C@@H]1CSC(C(=O)NCCCC[C@H](NC(=O)CCNC(=O)C2N[C@H](C(=O)N[C@H](C(=O)N[C@@H](CCC(=O)O)C(=O)N[C@@H](CCC(=O)O)C(=O)N[C@@H](CO)C(=O)N[C@@H](CCC(N)=O)C(=O)N[C@@H](CC(N)=O)C(=O)N[C@@H](CCC(N)=O)C(=O)N[C@@H](CCC(N)=O)C(=O)N[C@@H](CCC(=O)O)C(=O)N[C@@H](CCCCN)C(=O)N[C@@H](CC(N)=O)C(=O)N[C@@H](CCC(=O)O)C(=O)N[C@@H](CCC(N)=O)C(=O)N[C@@H](CCC(=O)O)C(=O)N[C@@H](CC(C)C)C(=O)N[C@@H](CC(C)C)C(=O)O)[C@@H](C)CC)CS2)C(=O)N[C@@H](CCCCNC(=O)CNC(=O)C2N[C@H](C(=O)N[C@H](C(=O)N[C@@H](CCC(=O)O)C(=O)N[C@@H](CCC(=O)O)C(=O)N[C@@H](CO)C(=O)N[C@@H](CCC(N)=O)C(=O)N[C@@H](CC(N)=O)C(=O)N[C@@H](CCC(N)=O)C(=O)N[C@@H](CCC(N)=O)C(=O)N[C@@H](CCC(=O)O)C(=O)N[C@@H](CCCCN)C(=O)N[C@@H](CC(N)=O)C(=O)N[C@@H](CCC(=O)O)C(=O)N[C@@H](CCC(N)=O)C(=O)N[C@@H](CCC(=O)O)C(=O)N[C@@H](CC(C)C)C(=O)N[C@@H](CC(C)C)C(=O)O)[C@@H](C)CC)CS2)C(=O)N[C@@H](CO)C(=O)N[C@@H](CO)C(=O)N[C@@H](C)C(N)=O)N1)C(=O)N[C@@H](CCC(=O)O)C(=O)N[C@@H](CCC(=O)O)C(=O)N[C@@H](CO)C(=O)N[C@@H](CCC(N)=O)C(=O)N[C@@H](CC(N)=O)C(=O)N[C@@H](CCC(N)=O)C(=O)N[C@@H](CCC(N)=O)C(=O)N[C@@H](CCC(=O)O)C(=O)N[C@@H](CCCCN)C(=O)N[C@@H](CC(N)=O)C(=O)N[C@@H](CCC(=O)O)C(=O)N[C@@H](CCC(N)=O)C(=O)N[C@@H](CCC(=O)O)C(=O)N[C@@H](CC(C)C)C(=O)N[C@@H](CC(C)C)C(=O)O (stereo partly drawn) [Compound 3α-C16]
[1]
  IC50: > 1 µM
M-tropic (BAL) HIV-1
  IC50: 0.124 µM
T-tropic (R8) HIV-1
  IC50: > 1 µM

## CC(C)C[C@H](NC(=O)[C@H](CO)NC(=O)[C@H](C)NC(=O)[C@H](Cc1c[nH]c2ccccc12)NC(=O)[C@H](CCCCN)NC(=O)[C@H](CC(=O)O)NC(=O)[C@H](CC(C)C)NC(=O)[C@H](CCC(=O)O)NC(=O)[C@H](CC(C)C)NC(=O)[C@H](CC(C)C)NC(=O)[C@H](CCC(=O)O)NC(=O)[C@H](CCC(N)=O)NC(=O)[C@H](CCC(=O)O)NC(=O)[C@H](CC(N)=O)NC(=O)[C@H](CCCCN)NC(=O)[C@H](CCC(=O)O)NC(=O)[C@H](CCC(N)=O)NC(=O)[C@H](CCC(N)=O)NC(=O)[C@H](CC(N)=O)NC(=O)[C@H](CCC(N)=O)NC(=O)[C@@H]1CSC(C(=O)NCCCC[C@H](NC(=O)CCNC(=O)C2N[C@H](C(=O)N[C@@H](CCC(N)=O)C(=O)N[C@@H](CC(N)=O)C(=O)N[C@@H](CCC(N)=O)C(=O)N[C@@H](CCC(N)=O)C(=O)N[C@@H](CCC(=O)O)C(=O)N[C@@H](CCCCN)C(=O)N[C@@H](CC(N)=O)C(=O)N[C@@H](CCC(=O)O)C(=O)N[C@@H](CCC(N)=O)C(=O)N[C@@H](CCC(=O)O)C(=O)N[C@@H](CC(C)C)C(=O)N[C@@H](CC(C)C)C(=O)N[C@@H](CCC(=O)O)C(=O)N[C@@H](CC(C)C)C(=O)N[C@@H](CC(=O)O)C(=O)N[C@@H](CCCCN)C(=O)N[C@@H](Cc3c[nH]c4ccccc34)C(=O)N[C@@H](C)C(=O)N[C@@H](CO)C(=O)N[C@@H](CC(C)C)C(=O)N[C@@H](Cc3c[nH]c4ccccc34)C(=O)N[C@@H](CC(N)=O)C(=O)N[C@@H](Cc3c[nH]c4ccccc34)C(=O)N[C@@H](Cc3ccccc3)C(=O)O)CS2)C(=O)N[C@@H](CCCCNC(=O)CNC(=O)C2N[C@H](C(=O)N[C@@H](CCC(N)=O)C(=O)N[C@@H](CC(N)=O)C(=O)N[C@@H](CCC(N)=O)C(=O)N[C@@H](CCC(N)=O)C(=O)N[C@@H](CCC(=O)O)C(=O)N[C@@H](CCCCN)C(=O)N[C@@H](CC(N)=O)C(=O)N[C@@H](CCC(=O)O)C(=O)N[C@@H](CCC(N)=O)C(=O)N[C@@H](CCC(=O)O)C(=O)N[C@@H](CC(C)C)C(=O)N[C@@H](CC(C)C)C(=O)N[C@@H](CCC(=O)O)C(=O)N[C@@H](CC(C)C)C(=O)N[C@@H](CC(=O)O)C(=O)N[C@@H](CCCCN)C(=O)N[C@@H](Cc3c[nH]c4ccccc34)C(=O)N[C@@H](C)C(=O)N[C@@H](CO)C(=O)N[C@@H](CC(C)C)C(=O)N[C@@H](Cc3c[nH]c4ccccc34)C(=O)N[C@@H](CC(N)=O)C(=O)N[C@@H](Cc3c[nH]c4ccccc34)C(=O)N[C@@H](Cc3ccccc3)C(=O)O)CS2)C(=O)N[C@@H](CO)C(=O)N[C@@H](CO)C(=O)N[C@@H](C)C(N)=O)N1)C(=O)N[C@@H](Cc1c[nH]c2ccccc12)C(=O)N[C@@H](CC(N)=O)C(=O)N[C@@H](Cc1c[nH]c2ccccc12)C(=O)N[C@@H](Cc1ccccc1)C(=O)O (stereo partly drawn) [Compound 3α-C24]
[1]
  IC50: 0.29 µM
M-tropic (BAL) HIV-1
  IC50: 0.036 µM
T-tropic (R8) HIV-1
  IC50: 0.31 µM
